Structures can show the parent of a compound that is named as a salt.
System: GBM cells
Test: Cell viability dose response in GBM cells (Vi-CELL, CellTiter-Glo)
Type: cell-based
Conditions: compared with controls (DMSO and Temozolomide)
Procedure: Small molecules were synthesized by the Molecular Design and Synthesis laboratory, Rutgers Translational Sciences at Rutgers University, NJ, USA. To compare the effects of Exemplary Compound 14 to Comparative Example 100, cells (3×10^5/well) were seeded into the 96-well tissue culture plates and treated with different BMI1 inhibitors (from 10 nM to 10 μM) in appropriate media. Dose response curves were generated upon exposing GBM cells to different concentrations of Exemplary compound 14, Comparative Example 101, and Comparative Example 100 (0.010-10 μM) for 72 hours. Cells were counted using Beckman Coulter Vi-CELL Cell Viability Analyzer, and cell viability was confirmed by CellTiter-Glo Luminescent Cell Viability Assay (Promega, Madison, WI, USA) according to standard protocols and analyzed with a Victor 2 plate reader (Wallac, Turku, Finland). We then assessed the selectivity and potency in GBM cells vs primary GBM. Dose-response curves were generated in both spheres and monocultures and used to determine a sphere selectivity ratio (targeting Glioblastoma Initiating Cells), defined as EC50(U87)/EC50(spheres), for each compound.

SMILES: COc1c(F)cc(Nc2nc(-c3c(C)nc4ccccn34)cs2)cc1F [Compound 14, hydrochloride]
- sphere selectivity ratio EC50(U87)/EC50(spheres): high selectivity for glioblastoma cancer stem cells

Source: patent publication US12215106B2, “Pharmaceutical compounds and therapeutic methods” (RUTGERS, THE STATE UNIVERSITY OF NEW JERSEY, priority 2018, dated 2025)
